Consider nine compounds from US12559487B2, “Crosslinked optically active secondary amine derivative” (Sumitomo Pharma Co., Ltd., priority 2019, dated 2026).

Usually IC50 stands for the concentration that inhibits the measured activity by half.

In one data set the test system is MV4; 11 cells. Nature of the data set: Test 1: Test for evaluating the inhibition of cell proliferation. The settings on record: for IC50: cultured for 7 days, PrestoBlue cell viability. Format: cell-based. How it is done: MV4; 11 cells were obtained from American Type Culture Collection (ATCC). The cells were cultured at 37° C. in the presence of 5% CO2 in RPMI 1640 medium containing 10% fetal bovine serum and 1% penicillin/streptomycin.
The cells were plated to a 96-well plate in 2000 cells/well, each test compound was added thereto to adjust the final concentration of DMSO to 0.1% of DMSO, and the cells were cultured for 7 days. After the cultivation, the cell viability was calculated with PrestoBlue™ Cell Viability Reagent (Invitrogen, A13261).

The target in data set [1] is hERG (human Ether-a-go-go Related Gene) (Homo sapiens (Human), UniProt Q12809). The data set can be described thus: Test 2: Test for the hERG inhibition (QPatch HT, CHO cell strain stably expressing hERG). The note with it: for hERG/MV4; 11: hERG IC50 divided by MV4, 11 proliferation IC50; for gap between concentration inhibiting 50% of MV4; 11 proliferation and concentration inhibiting 50% of hERG current: hERG IC50 vs MV4, 11 IC50; for IC50: read-out: hERG IC50, hERG current, CHO cells stably expressing hERG, QPatch HT. For orientation: The hERG channel carries a current that helps repolarise heart muscle cells.
Sequence of hERG (human Ether-a-go-go Related Gene) (Q12809 whole entry): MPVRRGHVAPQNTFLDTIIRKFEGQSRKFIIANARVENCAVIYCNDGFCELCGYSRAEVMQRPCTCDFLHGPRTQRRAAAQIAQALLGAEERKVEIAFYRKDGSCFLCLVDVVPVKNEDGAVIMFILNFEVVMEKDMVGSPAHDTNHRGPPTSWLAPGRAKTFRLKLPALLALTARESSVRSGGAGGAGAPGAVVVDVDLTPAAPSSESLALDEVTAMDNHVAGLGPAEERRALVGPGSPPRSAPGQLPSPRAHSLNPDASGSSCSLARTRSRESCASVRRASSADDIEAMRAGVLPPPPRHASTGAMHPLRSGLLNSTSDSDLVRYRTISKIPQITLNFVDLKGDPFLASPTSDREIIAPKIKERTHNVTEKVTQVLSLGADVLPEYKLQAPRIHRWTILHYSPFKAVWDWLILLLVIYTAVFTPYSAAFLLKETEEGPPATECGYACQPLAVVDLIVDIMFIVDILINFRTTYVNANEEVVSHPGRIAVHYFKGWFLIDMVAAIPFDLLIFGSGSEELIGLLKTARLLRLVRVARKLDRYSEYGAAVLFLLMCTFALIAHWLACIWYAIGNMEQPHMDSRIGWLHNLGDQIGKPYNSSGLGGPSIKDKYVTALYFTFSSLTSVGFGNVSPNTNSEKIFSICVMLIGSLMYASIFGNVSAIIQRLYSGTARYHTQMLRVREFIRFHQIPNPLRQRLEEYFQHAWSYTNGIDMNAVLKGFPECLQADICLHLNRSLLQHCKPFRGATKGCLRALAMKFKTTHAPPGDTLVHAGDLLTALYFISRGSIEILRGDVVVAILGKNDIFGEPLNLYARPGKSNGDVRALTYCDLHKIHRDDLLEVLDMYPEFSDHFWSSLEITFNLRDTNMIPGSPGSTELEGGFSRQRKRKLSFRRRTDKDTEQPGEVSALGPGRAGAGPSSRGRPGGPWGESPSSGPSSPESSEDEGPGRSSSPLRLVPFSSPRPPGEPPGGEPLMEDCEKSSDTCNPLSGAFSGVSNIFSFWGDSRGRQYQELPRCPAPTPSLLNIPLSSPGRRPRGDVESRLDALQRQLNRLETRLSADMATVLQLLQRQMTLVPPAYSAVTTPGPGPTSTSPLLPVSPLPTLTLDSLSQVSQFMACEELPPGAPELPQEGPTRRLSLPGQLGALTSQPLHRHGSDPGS

For the compound “2-(3-{1-[(1S,3S,4R,6S)-6-(cyclopropylmethyl)-2-azabicyclo[2.2.2]octane-3-carbonyl]piperidin-4-yl}-1H-pyrrolo[2,3-c]pyridin-1-yl)-5-fluoro-N,N-di(propan-2-yl)benzamide [Example 6]”, the IC50 in the data set with MV4; 11 cells was less than 3 nM.
As for “2-(3-{1-[(3S)-2-azabicyclo[2.2.2]octane-3-carbonyl]-1,2,3,6-tetrahydropyridin-4-yl}-1H-pyrrolo[2,3-c]pyridin-1-yl)-5-fluoro-N-methyl-N-(propan-2-yl)benzamide [Example 2]”, in data set [1], the “hERG/MV4; 11” value is given as 102; the “gap between concentration inhibiting 50% of MV4; 11 proliferation and concentration inhibiting 50% of hERG current” value is recorded as “more than 100 fold”; the half-maximal inhibitory concentration (IC50) is 54000 nM. The compound also displayed an IC50 in the data set with MV4; 11 cells of 530 nM.
For the compound “2-(3-{1-[(3S)-2-azabicyclo[2.2.2]octane-3-carbonyl]piperidin-4-yl}-1H-pyrrolo[2,3-c]pyridin-1-yl)-5-fluoro-N-methyl-N-(propan-2-yl)benzamide [Example 4]”, in data set [1], the “hERG/MV4; 11” value is listed as greater than 1370; the “gap between concentration inhibiting 50% of MV4; 11 proliferation and concentration inhibiting 50% of hERG current” value was “more than 100 fold”; the IC50 was greater than 100000 nM. Moreover, in data set [1] (text prints RS4, 11 cells (table is MV4; 11)), the “gap between concentration inhibiting 50% of RS4; 11 proliferation and concentration inhibiting 50% of hERG current” value is reported as “more than 1000 fold”. Moreover, the IC50 in the data set with MV4; 11 cells stood at 73 nM. Further, the “cell proliferation inhibition activity” value in the data set on MV4; 11 cells (summary in words) is reported as “potent cell proliferation inhibition activity”.
With “2-(3-{2-[(1R,3S,4S)-2-azabicyclo[2.2.1]heptane-3-carbonyl]-2-azaspiro[3.4]octan-6-yl}-1H-pyrrolo[2,3-c]pyridin-1-yl)-5-fluoro-N-methyl-N-(propan-2-yl)benzamide [Example 24]”, in the data set with MV4; 11 cells, half-maximal inhibition (IC50) was put at 58 nM.
The compound “5-fluoro-2-(3-{8-[(1S,3S,4R)-5-methylidene-2-azabicyclo[2.2.2]octane-3-carbonyl]-8-azabicyclo[3.2.1]octan-3-yl}-1H-pyrrolo[2,3-c]pyridin-1-yl)-N,N-di(propan-2-yl)benzamide [Example 23]” showed an IC50 in the data set with MV4; 11 cells of 280 nM.
Same read-out and setting: as for “5-fluoro-N-methyl-2-(3-{8-[(1S,3S,4R)-5-methylidene-2-azabicyclo[2.2.2]octane-3-carbonyl]-8-azabicyclo[3.2.1]octan-3-yl}-1H-pyrrolo[2,3-c]pyridin-1-yl)-N-(propan-2-yl)benzamide [Example 21]”, the figure is 430 nM.
As for `CC(C)N(C)C(=O)c1cc(F)ccc1-n1cc(C2CCCN(C(=O)[C@H]3N[C@@H]4CC[C@H]3C4)CC2)c2ccncc21` (stereo partly drawn) [Example 10, 2-(3-{1-[(1R,3S,4S)-2-azabicyclo[2.2.1]heptane-3-carbonyl]azepan-4-yl}-1H-pyrrolo[2,3-c]pyridin-1-yl)-5-fluoro-N-methyl-N-(propan-2-yl)benzamide], in data set [1], the “hERG/MV4; 11” value is listed as 621; the “gap between concentration inhibiting 50% of MV4; 11 proliferation and concentration inhibiting 50% of hERG current” value is on record as “more than 100 fold”.
For the compound `C=C1C[C@@H]2CC[C@H]1[C@@H](C(=O)N1CCCC(c3cn(-c4ccc(F)cc4C(=O)N(C)C(C)C)c4cnccc34)CCC1)N2` [Example 16, 5-fluoro-N-methyl-2-(3-{1-[(1S,3S,4R)-5-methylidene-2-azabicyclo[2.2.2]octane-3-carbonyl]azocan-5-yl}-1H-pyrrolo[2,3-c]pyridin-1-yl)-N-(propan-2-yl)benzamide], it took 240 nM to reach half-maximal inhibition in the data set with MV4; 11 cells (IC50).
Still for that read-out and setting: as for `C=C1C[C@@H]2CC[C@H]1[C@@H](C(=O)N1CCCC(c3cn(-c4ccc(F)cc4C(=O)N(C(C)C)C(C)C)c4cnccc34)CCC1)N2` [Example 18, 5-fluoro-2-(3-{1-[(1S,3S,4R)-5-methylidene-2-azabicyclo[2.2.2]octane-3-carbonyl]azocan-5-yl}-1H-pyrrolo[2,3-c]pyridin-1-yl)-N,N-di(propan-2-yl)benzamide], the figure is 730 nM.
